Experimental findings from patent US20260355196A1, “INHIBITORS AND DEGRADERS OF PIP4K PROTEIN” (Larkspur Biosciences, Inc., priority 2023, published 2026) are described below.

SMILES strings stand for the structures. Where only a bound is given, the exact number is not on record here.

The target of this test is T1, PIP4K2C (Homo sapiens, UniProt Q8TBX8).
T1 sequence (Q8TBX8 1-421): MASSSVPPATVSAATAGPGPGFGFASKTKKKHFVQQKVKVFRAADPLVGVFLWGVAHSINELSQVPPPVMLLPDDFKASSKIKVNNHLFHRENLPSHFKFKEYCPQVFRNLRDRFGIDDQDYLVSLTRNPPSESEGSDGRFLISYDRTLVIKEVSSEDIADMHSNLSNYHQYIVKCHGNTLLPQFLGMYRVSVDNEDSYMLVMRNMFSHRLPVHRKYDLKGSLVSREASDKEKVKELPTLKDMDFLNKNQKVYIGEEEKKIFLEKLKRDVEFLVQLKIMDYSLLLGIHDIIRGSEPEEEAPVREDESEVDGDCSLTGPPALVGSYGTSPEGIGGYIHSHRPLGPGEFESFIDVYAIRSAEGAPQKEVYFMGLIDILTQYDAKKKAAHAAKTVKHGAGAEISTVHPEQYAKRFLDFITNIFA
Briefly: HiBiT PIP4K2C degradation assay in MOLT-4 cells (endogenous PIP4K2C C-terminally tagged with HiBiT). The class given is cell-based. On the set-up: untagged in primary human PBMCs and monocyte-derived dendritic cells. To be noted: 6 hours of incubation time, rather than 24 hours; MOLT-4, top concentration 10 micromolar; read-out: HiBIT-degradation MOLT4 PIP4k2C DC50 (6 hours, marked *). In short, it runs like this: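 MOLT-4 knock-in line, HiBiT on PIP4K2C C-terminus; 22,500 cells/well; 10-pt 3-fold titration from 10 micromolar, n=2; 24 h or 6 h, 37 C, 5% CO2; Nano-Glo HiBiT lytic luminescence; DC50 via Hill equation.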
Consider `O=C1CCC(Nc2ccc(C3CCN(CC4CCN(C(=O)N5CCC(Nc6ncc(F)c(-c7cccc(-n8ccccc8=O)c7)n6)CC5)CC4)CC3)c(F)c2)C(=O)N1` (centres unmarked) [Compound 465, 3-((3-fluoro-4-(1-((1-(4-((5-fluoro-4-(3-(2-oxopyridin-1 (2H)-yl)phenyl)pyrimidin-2-yl)amino)piperidine-1-carbonyl)piperidin-4-yl)methyl)piperidin-4-yl)phenyl)amino)piperidine-2,6-dione], for which the DC50 was under 500 nM. The figure for `O=C1CCC(Nc2ccc(C3CCN(CC4CCN(C(=O)[C@H]5CC[C@H](Nc6ncc(F)c(-c7cccc(-c8ccccc8)c7)n6)CC5)CC4)CC3)c(F)c2)C(=O)N1` (stereo partly drawn) [Compound 466, 3-((4-(1-((1-(trans-4-((4-([1,1′-biphenyl]-3-yl)-5-fluoropyrimidin-2-yl)amino)cyclohexane-1-carbonyl)piperidin-4-yl)methyl)piperidin-4-yl)-3-fluorophenyl)amino)piperidine-2,6-dione] is under 500 nM; for `Cn1nc(C2CCC(=O)NC2=O)c2ccc(C3CCN(CC4CCN(C(=O)O[C@H]5CC[C@H](Nc6ncc(F)c(-c7cccc(-n8ccccc8=O)c7)n6)CC5)CC4)CC3)cc21` (stereo partly drawn) [Compound 467, trans-4-((5-fluoro-4-(3-(2-oxopyridin-1 (2H)-yl)phenyl)pyrimidin-2-yl)amino)cyclohexyl 4-((4-(3-(2,6-dioxopiperidin-3-yl)-1-methyl-1H-indazol-6-yl)piperidin-1-yl)methyl)piperidine-1-carboxylate] it is under 500 nM.

`O=C1CCC(Nc2ccc(C3CCN(CC4CCN(C(=O)[C@H]5CC[C@H](Nc6ncc(F)c(-c7cccc(C(=O)N8CC[C@H](O)C8)c7)n6)CC5)CC4)CC3)c(F)c2)C(=O)N1` (stereo partly drawn) [Compound 468, trans-3-((3-fluoro-4-(1-((1-(4-((5-fluoro-4-(3-((S)-3-hydroxypyrrolidine-1-carbonyl)phenyl)pyrimidin-2-yl)amino)cyclohexane-1-carbonyl)piperidin-4-yl)methyl)piperidin-4-yl)phenyl)amino)piperidine-2,6-dione]: the 50% degradation concentration (DC50) is under 500 nM. `O=C1CCC(Nc2ccc(C3CCN(CCC4CCN(C(=O)O[C@H]5CC[C@H](Nc6ncc(F)c(-c7cccc(-c8ccccc8)c7)n6)CC5)CC4)CC3)c(F)c2)C(=O)N1` (stereo partly drawn) [Compound 469, trans-4-((4-([1,1′-biphenyl]-3-yl)-5-fluoropyrimidin-2-yl)amino)cyclohexyl 4-(2-(4-(4-((2,6-dioxopiperidin-3-yl)amino)-2-fluorophenyl)piperidin-1-yl)ethyl)piperidine-1-carboxylate]: the DC50 is under 500 nM. In the case of `Cc1ccn(-c2cccc(-c3nc(N[C@H]4CC[C@H](C(=O)N5CCC(O)(CN6CCN(c7ccc(NC8CCC(=O)NC8=O)cc7F)CC6)CC5)CC4)ncc3F)c2)c(=O)c1` (stereo partly drawn) [Compound 470, trans-3-((3-fluoro-4-(4-((1-(4-((5-fluoro-4-(3-(4-methyl-2-oxopyridin-1 (2H)-yl)phenyl)pyrimidin-2-yl)amino)cyclohexane-1-carbonyl)-4-hydroxypiperidin-4-yl)methyl)piperazin-1-yl)phenyl)amino)piperidine-2,6-dione], the DC50 is under 500 nM. `Cc1ccn(-c2cccc(-c3nc(N[C@H]4CC[C@H](C(=O)N5CCC(CN6CCN(c7ccc(NC8CCC(=O)NC8=O)cc7F)CC6)CC5)CC4)ncc3F)c2)c(=O)c1` (stereo partly drawn) [Compound 471, trans-3-((3-fluoro-4-(4-((1-(4-((5-fluoro-4-(3-(4-methyl-2-oxopyridin-1 (2H)-yl)phenyl)pyrimidin-2-yl)amino)cyclohexane-1-carbonyl)piperidin-4-yl)methyl)piperazin-1-yl)phenyl)amino)piperidine-2,6-dione]: the DC50 is under 500 nM.

Take `Cc1ccn(-c2cccc(-c3nc(N[C@H]4CC[C@H](C(=O)N5CCC(O)(CN6CCC(c7ccc(NC8CCC(=O)NC8=O)cc7F)CC6)CC5)CC4)ncc3F)c2)c(=O)c1` (stereo partly drawn) [Compound 472, trans-3-[3-fluoro-4-[1-[[1-[4-[[5-fluoro-4-[3-(4-methyl-2-oxo-1-pyridyl)phenyl]pyrimidin-2-yl]amino]cyclohexanecarbonyl]-4-hydroxy-4-piperidyl]methyl]-4-piperidyl]anilino]piperidine-2,6-dione]: the DC50 is under 500 nM.

`Cc1ccn(-c2cccc(-c3nc(N[C@H]4CC[C@H](C(=O)N5CCC(CN6CCC(c7ccc(NC8CCC(=O)NC8=O)cc7F)CC6)CC5)CC4)ncc3F)c2)c(=O)c1` (stereo partly drawn) [Compound 473, trans-3-((3-fluoro-4-(1-((1-(4-((5-fluoro-4-(3-(4-methyl-2-oxopyridin-1 (2H)-yl)phenyl)pyrimidin-2-yl)amino)cyclohexane-1-carbonyl)piperidin-4-yl)methyl)piperidin-4-yl)phenyl)amino)piperidine-2,6-dione]: the DC50 was under 500 nM. For `O=C1CCC(Nc2ccc(C3CCN(C4CCN(C(=O)O[C@H]5CC[C@H](Nc6ncc(F)c(-c7cccc(-n8ccccc8=O)c7)n6)CC5)CC4)CC3)c(F)c2)C(=O)N1` (stereo partly drawn) [Compound 474, trans-4-((5-fluoro-4-(3-(2-oxopyridin-1 (2H)-yl)phenyl)pyrimidin-2-yl)amino)cyclohexyl 4-(4-((2,6-dioxopiperidin-3-yl)amino)-2-fluorophenyl)-[1,4′-bipiperidine]-1′-carboxylate] the value was under 500 nM. For `O=C1CCC(Nc2ccc(N3CCN(C4CCN(C(=O)O[C@H]5CC[C@H](Nc6ncc(F)c(-c7cccc(-n8ccccc8=O)c7)n6)CC5)CC4)CC3)c(F)c2)C(=O)N1` (stereo partly drawn) [Compound 475, trans-4-((5-fluoro-4-(3-(2-oxopyridin-1 (2H)-yl)phenyl)pyrimidin-2-yl)amino)cyclohexyl 4-(4-(4-((2,6-dioxopiperidin-3-yl)amino)-2-fluorophenyl)piperazin-1-yl)piperidine-1-carboxylate] the value was under 500 nM; for `O=C1CCC(Nc2ccc(N3CCC(N4CCC(NC(=O)[C@H]5CC[C@H](Nc6ncc(F)c(-c7cccc(N8CCOCC8=O)c7)n6)CC5)CC4)C(F)C3)c(F)c2)C(=O)N1` (stereo partly drawn) [Compound 476, trans-N-(1′-(4-((2,6-dioxopiperidin-3-yl)amino)-2-fluorophenyl)-3′-fluoro-[1,4′-bipiperidin]-4-yl)-4-((5-fluoro-4-(3-(3-oxomorpholino)phenyl)pyrimidin-2-yl)amino)cyclohexane-1-carboxamide], under 500 nM. The figure for `O=C1CCC(Nc2ccc(C3CCN(CC4CCN(C(=O)[C@H]5CC[C@H](Nc6ncc(F)c(-c7cccc(N8CCCCC8)c7)n6)CC5)CC4)CC3)c(F)c2)C(=O)N1` (stereo partly drawn) [Compound 477, trans-3-((3-fluoro-4-(1-((1-(trans-4-((5-fluoro-4-(3-(piperidin-1-yl)phenyl)pyrimidin-2-yl)amino)cyclohexane-1-carbonyl)piperidin-4-yl)methyl)piperidin-4-yl)phenyl)amino)piperidine-2,6-dione] is under 500 nM.

With `CN(C(=O)[C@H]1CC[C@H](N2CCN(c3ccc(NC4CCC(=O)NC4=O)cc3F)CC2)CC1)[C@H]1CC[C@H](Nc2ncc(F)c(-c3cccc(C4CC4)c3)n2)CC1` (stereo partly drawn) [Compound 478, trans-N-((trans)-4-((4-(3-cyclopropylphenyl)-5-fluoropyrimidin-2-yl)amino)cyclohexyl)-4-(4-(4-((2,6-dioxopiperidin-3-yl)amino)-2-fluorophenyl)piperazin-1-yl)-N-methylcyclohexane-1-carboxamide], the DC50 is under 500 nM.
